The values below come from ChEMBL document CHEMBL1127708, “Aromatase inhibitors. Syntheses and structure-activity studies of novel pyridyl-substituted indanones, indans, and tetralins” (J Med Chem, 1994).

Data set [1] is filed under the species Rattus norvegicus. Format: functional. Particulars: dose 10 mg/kg.
The species named for data set [2] is Rattus norvegicus. Format: functional. Particulars: dose 10 mg/kg. The source holds these as a separate data set.
Data set [3] is filed under the species Rattus norvegicus. Format: functional. Particulars: dose 10 mg/kg. The source holds these as a separate data set.
For data set [4], the species on record is Rattus norvegicus. The format is functional. Particulars: dose 10 mg/kg. The source holds these as a separate data set.
The species named for data set [5] is Rattus norvegicus. The format is functional. Particulars: dose 10 mg/kg. This is another data set of the same source.
Data set [6] is filed under the species Rattus norvegicus. The format is functional. Particulars: dose 10 mg/kg. The source holds these as a separate data set.
The species entered for data set [7] is Rattus norvegicus. Format: functional. Particulars: dose 10 mg/kg. The source holds these as a separate data set.
Data set [8] is filed under the species Rattus norvegicus. Format: functional. Particulars: dose 10.3 mg/kg.
For data set [9], the species on record is Rattus norvegicus. Format: functional. Particulars: dose 10.3 mg/kg. The source holds these as a separate data set.
The species entered for data set [10] is Rattus norvegicus. The format is functional. Particulars: dose 10.3 mg/kg. The source holds these as a separate data set.
The species entered for data set [11] is Rattus norvegicus. The format is functional. Particulars: dose 10.3 mg/kg. The source holds these as a separate data set.
The species entered for data set [12] is Rattus norvegicus. Format: functional. Particulars: dose 10.3 mg/kg. This is another data set of the same source.
Data set [13] is filed under the species Rattus norvegicus. The format is functional. Particulars: dose 10.3 mg/kg. This is another data set of the same source.
The species named for data set [14] is Rattus norvegicus. The format is functional. Particulars: dose 10.3 mg/kg. This is another data set of the same source.
The target in a further data set is T1, Aromatase (Rattus norvegicus, UniProt P22443).
T1 sequence (P22443 whole entry): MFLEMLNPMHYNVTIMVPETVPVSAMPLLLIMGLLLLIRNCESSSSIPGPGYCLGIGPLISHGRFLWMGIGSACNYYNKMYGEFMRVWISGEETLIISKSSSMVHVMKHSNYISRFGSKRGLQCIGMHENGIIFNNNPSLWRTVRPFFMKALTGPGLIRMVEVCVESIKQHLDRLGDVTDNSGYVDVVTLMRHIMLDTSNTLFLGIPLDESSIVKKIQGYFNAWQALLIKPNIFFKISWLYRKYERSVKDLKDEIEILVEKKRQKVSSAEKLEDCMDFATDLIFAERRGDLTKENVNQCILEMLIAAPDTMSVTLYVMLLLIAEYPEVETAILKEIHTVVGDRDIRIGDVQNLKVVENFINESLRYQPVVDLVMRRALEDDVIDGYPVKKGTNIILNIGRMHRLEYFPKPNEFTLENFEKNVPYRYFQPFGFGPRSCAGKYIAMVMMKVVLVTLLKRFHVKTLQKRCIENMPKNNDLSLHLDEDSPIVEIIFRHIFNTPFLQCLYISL

The species named for data set [15] is Rattus norvegicus. The format is functional. Particulars: dose 10 mg/kg. The source holds these as a separate data set.
The species named for data set [16] is Rattus norvegicus. Format: functional.
Data set [17] is filed under the species Rattus norvegicus. The format is functional. This is another data set of the same source.
Data set [18] is filed under the species Rattus norvegicus. The format is functional. The source holds these as a separate data set.
For data set [19], the species on record is Rattus norvegicus. The format is functional. The source holds these as a separate data set.
The species named for data set [20] is Rattus norvegicus. Format: functional. The source holds these as a separate data set.
The species named for data set [21] is Rattus norvegicus. The format is functional. This is another data set of the same source.

For `CCC1(c2ccc(N)cc2)CCC(=O)NC1=O` (stereo not drawn) [AMINOGLUTETHIMIDE], the No. of tumors came to 7 in the data set listed under Rattus norvegicus [1] and 35 in the data set filed under Rattus norvegicus [7]. Further, the “Change of tumor area” value was 23% in the data set filed under Rattus norvegicus [2], 54% in the data set filed under Rattus norvegicus [4], 17% in the data set listed under Rattus norvegicus [5] and 4% in the data set filed under Rattus norvegicus [6]. The same molecule gave an Of tumors in the data set listed under Rattus norvegicus [3] of 6%.
As for `Oc1cccc2c1CCC(Cc1ccncc1)C2` (stereo not drawn), the “Change of tumor area” value in the data set filed under Rattus norvegicus [8] amounted to 16%; in the data set filed under Rattus norvegicus [9], 41%; in the data set filed under Rattus norvegicus [10], 19%; in the data set listed under Rattus norvegicus [12], 24%; in the data set filed under Rattus norvegicus [13], 123%. In addition, the figures for the No. of tumors in the data set filed under Rattus norvegicus [11] and in the data set filed under Rattus norvegicus [14] were 4 and 37, respectively.
`COc1ccc2c(c1)CC(Cc1ccncc1)C2=O` (stereo not drawn) showed an Effect at Aromatase of 150.
`CCC(=O)OC1CCC2C3CCC4=CC(=O)CCC4C3CCC12C` (stereo not drawn): the “Change of tumor area” value in the data set listed under Rattus norvegicus [15] amounted to 141%; in the data set listed under Rattus norvegicus [17], 25%; in the data set filed under Rattus norvegicus [19], 19%; in the data set filed under Rattus norvegicus [20], 36%; in the data set listed under Rattus norvegicus [21] it was 19%. The No. of tumors in the data set listed under Rattus norvegicus [16] was determined as 12; in the data set listed under Rattus norvegicus [18] it was 36.
With `O=C1c2ccc(O)cc2CC1Cc1ccncc1` (stereo not drawn), on Aromatase, the Effect is given as 160.
